From patent US8476197B2, “Aminopropenoates as fungicides” (priority 2009, dated 2013)
Marks after values point to notes of the source that are not given here.

Details: pH 2.3

SMILES	Log P
COC(=O)C(C#N)=C(NC(C)C(C)C)c1cccnc1Cl (stereo not shown) [Compound 931]	3
COC(=O)C(C#N)=C(NC(C)C(C)C)c1cccnc1Br (stereo not shown) [Compound 942]	3.02

Same assay, conditions: pH 2.7

SMILES	Log P
CCOC(=O)C(C#N)=C(NC(C)C1CC1)c1cccnc1C(F)(F)F (stereo not shown) [Compound 892]	3.35^[a]
CCOC(=O)C(C#N)=C(NC(C)C1CC1)c1sc(Cl)nc1Cl (stereo not shown) [Compound 893]	3.87^[a]
CCOC(=O)C(C#N)=C(NC(C)C1CC1)c1cccnc1Cl (stereo not shown) [Compound 909]	3.1^[a]
CCOC(=O)C(C#N)=C(NC(C)C1CC1)c1cccnc1Cl (stereo not shown) [Compound 910]	3.1^[a]
CCOC(=O)C(C#N)=C(NC(C)C(C)(C)C)c1cccnc1Cl (stereo not shown) [Compound 924]	3.6^[a]
COC(=O)C(C#N)=C(NC(C)C(C)C)c1cccnc1Cl (stereo not shown) [Compound 931]	2.76
CCOC(=O)C(C#N)=C(NC(C)C(C)C)c1cn(C)nc1C(F)F (stereo not shown) [Compound 933]	3.13^[a]
COC(=O)C(C#N)=C(NC(C)C(C)C)c1cn(C)nc1C(F)F (stereo not shown) [Compound 938]	2.8^[a]
CCOC(=O)C(C#N)=C(NC(C)C(C)C)c1cn(C)nc1C(F)(F)F (stereo not shown) [Compound 939]	3.64^[a]
CCOC(=O)C(C#N)=C(NC(C)C(C)C)c1conc1C (stereo not shown) [Compound 940]	3.15^[a]

Second part, the molecule after the results:

Log P	SMILES
4.36^[a]	CCOC(=O)C(C#N)=C(NC(C)C1CC1)c1cc(Cl)sc1Cl (stereo not shown) [Compound 887]
3.73^[a]	CCOC(=O)C(C#N)=C(NC(C)C1CC1)c1nc(Cl)ccc1Cl (stereo not shown) [Compound 888]
3.8^[a]	CCOC(=O)C(C#N)=C(NC(C)C1CC1)c1ncc(Cl)cc1Cl (stereo not shown) [Compound 889]
3.64^[a]	CCOC(=O)C(C#N)=C(NC(C)C1CC1)c1cnc(Cl)cc1Cl (stereo not shown) [Compound 890]
2.8^[a]	CCOC(=O)C(C#N)=C(NC(C)C1CC1)c1cn(C)nc1OC (stereo not shown) [Compound 891]
4.26^[a]	CCOC(=O)C(C#N)=C(NC(C)CCCC(C)C)c1cn(C)nc1C(F)F (stereo not shown) [Compound 925]
5.39^[a]	CCOC(=O)C(C#N)=C(NC(C)CCCC(C)C)c1sccc1C(F)(F)F (stereo not shown) [Compound 926]
4.78^[a]	COC(=O)C(C#N)=C(NC(C)CCCC(C)C)c1sc(C)nc1C(F)(F)F (stereo not shown) [Compound 927]
5.36^[a]	CCOC(=O)C(C#N)=C(NC(C)CCCC(C)C)c1sccc1Br (stereo not shown) [Compound 928]
5.14^[a]	CCOC(=O)C(C#N)=C(NC(C)CCCC(C)C)c1sc(C)nc1C(F)(F)F (stereo not shown) [Compound 929]
5.32^[a]	CCOC(=O)C(C#N)=C(NC(C)CCCC(C)C)c1ccsc1Br (stereo not shown) [Compound 930]
4.29^[a]	CCOC(=O)C(C#N)=C(NC(C)C(C)C)c1ncc(C(F)(F)F)cc1Cl (stereo not shown) [Compound 935]
3.19^[a]	CCOC(=O)C(C#N)=C(NC(C)C(C)C)c1c(C)nn(C)c1F (stereo not shown) [Compound 936]
4.39^[a]	CCOC(=O)C(C#N)=C(NC(C)C(C)C)c1nsc(Cl)c1Cl (stereo not shown) [Compound 937]
4.12^[a]	CCOC(=O)C(C#N)=C(NC(C)C(C)C)c1sccc1Br (stereo not shown) [Compound 941]
3.67^[a]	CCOC(=O)C(C#N)=C(NC(C)C(C)C)c1c(C)nn(C)c1Cl (stereo not shown) [Compound 943]
4.21^[a]	CCOC(=O)C(C#N)=C(NC(C)C(C)C)c1sccc1C(F)(F)F (stereo not shown) [Compound 944]
4.1^[a]	CCOC(=O)C(C#N)=C(NC(C)C(C)C)c1ccsc1Br (stereo not shown) [Compound 945]

Same assay, conditions: pH 7.5

SMILES	Log P
COC(=O)C(C#N)=C(NC(C)C(C)C)c1cccnc1Cl (stereo not shown) [Compound 931]	2.83
COC(=O)C(C#N)=C(NC(C)C(C)C)c1cccnc1Cl (stereo not shown) [Compound 932]	2.85
CCOC(=O)C(C#N)=C(NC(C)C(C)C)c1cccnc1Cl (stereo not shown) [Compound 934]	3.21
COC(=O)C(C#N)=C(NC(C)C(C)C)c1cccnc1Br (stereo not shown) [Compound 942]	2.88
